Data as given in patent publication EP4722231A1, “BIOSYNTHESIS METHOD FOR BROAD-SPECTRUM ANTIVIRAL POLYPEPTIDE” (Shanxi Jinbo Bio-Pharmaceutical Co., Ltd., priority 2023, dated 2025).

Experiments:
BA.2.86 pseudovirus = settings: read-out: Inhibitory activity, IC50 (nM) BA.2.86, Caco2 target cells
BA.2.75 pseudovirus = settings: read-out: Inhibitory activity, IC50 (nM) BA.2.75, Caco2 target cells
BA.2 pseudovirus = settings: read-out: Inhibitory activity, IC50 (nM) BA.2, Caco2 target cells
EG.5 pseudovirus = settings: read-out: Inhibitory activity, IC50 (nM) EG.5, Caco2 target cells
XBB.1.5 pseudovirus = settings: read-out: Inhibitory activity, IC50 (nM) XBB.1.5, Caco2 target cells

CC[C@H](C)[C@H](NC(=O)[C@H](C)NC(=O)[C@H](CCC(=O)O)NC(=O)[C@H](CCC(=O)O)NC(=O)[C@H](CC(C)C)NC(=O)[C@H](CCCCN)NC(=O)[C@H](CCCCN)NC(=O)[C@H](CCSC)NC(=O)[C@H](CCC(=O)O)NC(=O)[C@H](Cc1ccc(O)cc1)NC(=O)[C@H](CCC(=O)O)NC(=O)[C@H](CC(C)C)NC(=O)[C@H](CC(=O)O)NC(=O)[C@H](CC(C)C)NC(=O)[C@H](Cc1ccccc1)NC(=O)[C@@H](NC(=O)[C@@H](NC(=O)[C@H](CC(N)=O)NC(=O)[C@@H](NC(=O)[C@H](CCC(N)=O)NC(=O)[C@H](CC(=O)O)NC(=O)[C@H](CC(C)C)NC(=O)[C@H](CO)NC(C)=O)[C@@H](C)CC)C(C)C)[C@@H](C)O)C(=O)N[C@@H](CCCCN)C(=O)N[C@@H](CCCCN)C(=O)N[C@@H](CC(C)C)C(=O)N[C@@H](CCC(=O)O)C(=O)N[C@@H](CCC(=O)O)C(=O)N[C@@H](CO)C(=O)N[C@@H](Cc1ccc(O)cc1)C(=O)N[C@H](C(=O)N[C@@H](CC(=O)O)C(=O)N[C@@H](CC(C)C)C(=O)N[C@@H](CCCCN)C(=O)N[C@@H](CCC(=O)O)C(=O)N[C@@H](CC(C)C)C(N)=O)[C@@H](C)CC [EK1]
IC50 (BA.2.86 pseudovirus): 392 nM
IC50 (BA.2.75 pseudovirus): 438 nM
IC50 (BA.2 pseudovirus): 228 nM
IC50 (EG.5 pseudovirus): 401 nM
IC50 (XBB.1.5 pseudovirus): 291 nM
